pKd: −log10 of the molar value.
Molecular target: T1, Nuclear receptor ROR-gamma (Homo sapiens, UniProt P51449)
T1 sequence (P51449 whole entry): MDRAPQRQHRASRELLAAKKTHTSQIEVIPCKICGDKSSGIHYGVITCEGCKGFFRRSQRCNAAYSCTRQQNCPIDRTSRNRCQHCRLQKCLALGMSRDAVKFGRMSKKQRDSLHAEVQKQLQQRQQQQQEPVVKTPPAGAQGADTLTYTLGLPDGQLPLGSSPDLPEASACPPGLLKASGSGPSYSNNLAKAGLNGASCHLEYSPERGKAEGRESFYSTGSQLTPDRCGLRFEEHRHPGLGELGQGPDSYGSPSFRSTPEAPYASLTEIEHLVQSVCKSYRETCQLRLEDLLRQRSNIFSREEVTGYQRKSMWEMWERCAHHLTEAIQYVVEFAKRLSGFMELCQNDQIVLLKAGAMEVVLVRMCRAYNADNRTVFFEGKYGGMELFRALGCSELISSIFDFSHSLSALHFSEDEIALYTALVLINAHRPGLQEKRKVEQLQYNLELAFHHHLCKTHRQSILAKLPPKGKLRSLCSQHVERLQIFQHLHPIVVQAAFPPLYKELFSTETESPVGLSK
Assay: Displacement of 1,8-ANS from human N-terminal His-tagged RORgammat LBD ([…]) expressed in Escherichia coli by thermofluor assay

pKd: 8.44
SMILES: COc1nc2ccc(C(O)(c3ccccc3)C3CCN(C(C)=O)CC3)cc2c(Cl)c1Cc1ccc(-n2cccn2)cc1 (stereo in doubt; 25a)
